Test results published in paper PMC7217877, “N-AS-triggered SPMs are direct regulators of microglia in a model of Alzheimer’s disease” (Nature Communications, 2020).
Values joined by “and” are separate entries in the source; they are usually repeats but may differ in a detail not shown here. Identical values can stand only once.

Tests used:
[1] = test system: microglia; assay: sphingosine level in primary cells (UPLC); format: cell-based, C57BL/6 mice; settings: Ab 10mM, replicates
Procedure: To confirm the generation and roles of N-AS in neurons, cells from E18 C57BL/6 mice were prepared as previously described. Cortices were dissected and then dissociated followed by incubation in papain (Worthington) at 37 °C for 15 min. Neurons were plated on poly-L-lysine-coated coverslips with neuronal culture medium, serum-free Neurobasal medium (Gibco) containing 2% B27 supplements (Gibco), 1 mM Glutamax supplement (Gibco), and 100 U ml^−1 streptomycin/ 100 U ml^−1 penicillin (Gibco) at 37 °C in a humidified atmosphere of 5% CO2. Aβ 1–42 (10 μM, 24 h, Invitrogen, 03112) was exposed to neurons and the cells were analyzed for the generation and roles of N-AS. Primary astrocyte cultures were prepared from C57BL/6 mice as described previously. […] The human microglia treated with Aβ 1–42 and/or zileuton was incubated with N-AS (2.5 μM, 2 h, Sigma-Aldrich, 01912), and were analyzed for the generation and roles of N-AS.
To quantify the sphingosine levels, the dried lipid extract was resuspended in 0.2% Igepal CA-630. […] The fluorescent sphingosine was monitored using a model 474 scanning fluorescence detector (Waters). Quantification of the sphingosine was calculated from sphingosine calibration curves using the Waters Millennium software.

[2] = test system: APP/PS1 mice; assay: fluorescent bead phagocytosis assay in live brain slices (Fig 5b); format: in vivo, mouse; settings: APP/PS1 + N-AS, individual values
Procedure: Transgenic mouse lines over-expressing the hAPP695swe (APP) and presenilin-1M146V (PS1) mutations were originated from GlaxoSmithKline (Harlow, UK)[32] and maintained as described previously. We purchased 5×FAD mice from Jackson Labs (Stock number. 34840-JAX). Because APP/PS1 and 5xFAD mice show sex differences in disease progression, we used only male mice. To examine possible therapeutic effect of N-AS and aspirin in APP/PS1 mice, the N-AS (30 mg kg^−1, Sigma-Aldrich, 01912) was injected daily s.c. for 8 weeks to 7-months-old APP/PS1 mice until the age of 9 months, and aspirin (2 mg kg^−1, Sigma-Aldrich, A5376)[33] was administrated orally to 7-months-old APP/PS1 mice for 8 weeks. Also, to confirm possible therapeutic efficacy of N-AS in 5×FAD, the N-AS (30 mg kg^−1, Sigma-Aldrich, 01912) was injected daily s.c. for 4 weeks to 3-months-old 5×FAD mice until the age of 4 months. Block randomization method was used to allocate the animals to experimental groups. To eliminate the bias, we were blinded in experimental progress such as data collection and data analysis. […]
The phagocytic activity of adult microglia in the cortex of live brain slices was analyzed as following protocol. […] The sections were analyzed with a laser-scanning confocal microscope (FV3000; Olympus). MetaMorph software (Molecular Devices) was used to quantification.

| Molecule | sphingosine (Fig 3f) [1] | number of microglial phagocytes normalized to the total number of microglia [2] |
| --- | --- | --- |
| Ab: Aβ 1–42 (Invitrogen, 03112) used to induce an AD environment in cells | 0.15 and 0.136 and 0.128 and 0.16 and 0.14 and 0.144 |  |
| CCCCCCCCCCCCC/C=C/[C@@H](O)[C@H](CO)NC(C)=O [N-AS, N-((2S,3R,E)-1,3-Dihydroxyoctadec-4-en-2-yl)acetamide] |  | 0.002363 and 0.002382 and 0.001493 and 0.001786 and 0.001435 |
